Values after ≈ are worked out from the molar mass of the structure shown. Active and inactive are the calls of the source. No cut-off for these calls is given here.
Experiments:
Pseudomonas aeruginosa [1] = assay: Antibacterial activity against multidrug-resistant Pseudomonas aeruginosa CCARM 2095 after 24 hrs; type: functional; conditions: CCARM 2095, 24 h
RAW264.7 [2] = assay: Anti-inflammatory activity in mouse RAW264.7 cells assessed as reduction in LPS-induced TNF-alpha mRNA expression at 10 uM after 3 hrs by RT-PCR analysis; type: functional, cell-based
Staphylococcus aureus [3] = assay: Antibacterial activity against methicillin resistant Staphylococcus aureus CCARM 3090 after 24 hrs; type: functional; conditions: CCARM 3090, 24 h
[4] = test system: Staphylococcus epidermidis; assay: Antibacterial activity against Staphylococcus epidermidis KCTC 1917 after 24 hrs; type: functional; conditions: KCTC 1917, 24 h
Escherichia coli [5] = assay: Antibacterial activity against Escherichia coli KCTC 1682 in presence of 6 uM NH4Cl after 24 hrs; type: functional; conditions: KCTC 1682, 24 h
Staphylococcus aureus [6] = assay: Antibacterial activity against Staphylococcus aureus KCTC 1621 after 24 hrs; type: functional; conditions: KCTC 1621, 24 h
Staphylococcus aureus [7] = assay: Antibacterial activity against Staphylococcus aureus KCTC 1621 in presence of 6 uM NH4Cl after 24 hrs; type: functional; conditions: KCTC 1621, 24 h
Pseudomonas aeruginosa [8] = assay: Antibacterial activity against Pseudomonas aeruginosa KCTC 1637 after 24 hrs; type: functional; conditions: KCTC 1637, 24 h
Escherichia coli [9] = assay: Antibacterial activity against Escherichia coli KCTC 1682 in presence of 20% human serum after 24 hrs; type: functional; conditions: KCTC 1682, 24 h
Salmonella typhimurium = assay: Antibacterial activity against Salmonella typhimurium KCTC 11926 after 24 hrs; type: functional, Salmonella enterica subsp. enterica serovar Typhimurium; conditions: Salmonella enterica, KCTC 11926, 24 h
Staphylococcus aureus [10] = assay: Antibacterial activity against Staphylococcus aureus KCTC 1621 in presence of 150 mM NaCl after 24 hrs; type: functional; conditions: KCTC 1621, 24 h
Enterococcus faecium [11] = assay: Potency index, ratio of LL-37 MIC to compound MIC for Vancomycin-resistant Enterococcus faecium ATCC 51559; type: functional
Pseudomonas aeruginosa [12] = assay: Antibacterial activity against multidrug-resistant Pseudomonas aeruginosa CCARM 2109 after 24 hrs; type: functional; conditions: CCARM 2109, 24 h
Escherichia coli [13] = assay: Antibacterial activity against Escherichia coli KCTC 1682 in presence of 4.5 mM KCl after 24 hrs; type: functional; conditions: KCTC 1682, 24 h
Staphylococcus aureus [14] = assay: Antibacterial activity against methicillin resistant Staphylococcus aureus CCARM 3089 after 24 hrs; type: functional; conditions: CCARM 3089, 24 h
Staphylococcus aureus [15] = assay: Antibacterial activity against Staphylococcus aureus KCTC 1621 in presence of 1 mM MgCl2 after 24 hrs; type: functional; conditions: KCTC 1621, 24 h
Staphylococcus aureus [16] = assay: Potency index, ratio of melittin MIC to compound MIC for methicillin resistant Staphylococcus aureus CCARM 3090; type: functional
Erythrocyte = assay: Hemolytic activity in human RBC after 1 hr; type: ADME, cell-based
Staphylococcus aureus [17] = assay: Potency index, ratio of LL-37 MIC to compound MIC for methicillin resistant Staphylococcus aureus CCARM 3089; type: functional
Bacillus subtilis = assay: Antibacterial activity against Bacillus subtilis KCTC 3068 after 24 hrs; type: functional; conditions: KCTC 3068, 24 h
Enterococcus faecium [18] = assay: Potency index, ratio of melittin MIC to compound MIC for Vancomycin-resistant Enterococcus faecium ATCC 51559; type: functional
Escherichia coli [19] = assay: Antibacterial activity against Escherichia coli KCTC 1682 in presence of 150 mM NaCl after 24 hrs; type: functional; conditions: KCTC 1682, 24 h
Staphylococcus aureus [20] = assay: Potency index, ratio of melittin MIC to compound MIC for methicillin resistant Staphylococcus aureus CCARM 3095; type: functional
[21] = Binding affinity to EYPC/cholesterol small unilamellar vesicles assessed as intrinsic tryptophan acrylamide quenching constant by fluorescence assay (reference value: 5.95 to 7.56 /M)
RAW264.7 [22] = assay: Anti-inflammatory activity in mouse RAW264.7 cells assessed as reduction in LPS-induced MCP-1 production at 10 to 20 uM preincubated for 1 hr followed by LPS stimulation measured after 6 hrs by ELISA; type: functional, cell-based
Pseudomonas aeruginosa [23] = assay: Antibiofilm activity against multidrug-resistant Pseudomonas aeruginosa CCARM 2095 after 24 hrs by crystal violet staining based assay; type: functional
RAW264.7 [24] = assay: Anti-inflammatory activity in mouse RAW264.7 cells assessed as reduction in LPS-induced IL-6 production at 10 to 20 uM preincubated for 1 hr followed by LPS stimulation measured after 6 hrs by ELISA; type: functional, cell-based
Pseudomonas aeruginosa [25] = assay: Synergistic antibacterial activity against multidrug-resistant Pseudomonas aeruginosa CCARM 2095 after 72 hrs in presence of ciprofloxacin by chequerboard assay; type: functional
Escherichia coli [26] = assay: Antibacterial activity against Escherichia coli KCTC 1682 in presence of 1 mM MgCl2 after 24 hrs; type: functional; conditions: KCTC 1682, 24 h
RAW264.7 [27] = assay: Anti-inflammatory activity in mouse RAW264.7 cells assessed as reduction in LPS-induced nitric oxide production at 10 to 20 uM after 24 hrs by Griess assay; type: functional, cell-based
Staphylococcus aureus [28] = assay: Antibacterial activity against Staphylococcus aureus KCTC 1621 in presence of 4.5 mM KCl after 24 hrs; type: functional; conditions: KCTC 1621, 24 h
Pseudomonas aeruginosa [29] = assay: Potency index, ratio of melittin MIC to compound MIC for multidrug-resistant Pseudomonas aeruginosa CCARM 2109; type: functional
Lipid bilayer = assay: Binding affinity to EYPE/EYPG small unilamellar vesicles assessed as intrinsic tryptophan acrylamide quenching constant by fluorescence assay (reference value: 5.95 to 7.56 /M)
Staphylococcus aureus [30] = assay: Antibacterial activity against Staphylococcus aureus KCTC 1621 assessed as cytoplasmic membrane depolarization at 2 times MIC by disC3-5 dye based fluorescence assay; type: functional, organism-based
Pseudomonas aeruginosa [31] = assay: Potency index, ratio of melittin MIC to compound MIC for multidrug-resistant Pseudomonas aeruginosa CCARM 2095; type: functional
Pseudomonas aeruginosa [32] = assay: Synergistic antibacterial activity against multidrug-resistant Pseudomonas aeruginosa CCARM 2095 after 72 hrs in presence of chloramphenicol by chequerboard assay; type: functional
Enterococcus faecium [33] = assay: Antibacterial activity against Vancomycin-resistant Enterococcus faecium ATCC 51559 after 24 hrs; type: functional; conditions: ATCC 51559, 24 h
Pseudomonas aeruginosa [34] = assay: Potency index, ratio of LL-37 MIC to compound MIC for multidrug-resistant Pseudomonas aeruginosa CCARM 2095; type: functional
RAW264.7 [35] = assay: Anti-inflammatory activity in mouse RAW264.7 cells assessed as reduction in LPS-induced TNF-alpha production at 10 to 20 uM preincubated for 1 hr followed by LPS stimulation measured after 6 hrs by ELISA; type: functional, cell-based
RAW264.7 [36] = assay: Anti-inflammatory activity in mouse RAW264.7 cells assessed as reduction in LPS-induced MCP-1 mRNA expression at 10 uM after 3 hrs by RT-PCR analysis; type: functional, cell-based
Escherichia coli [37] = assay: Antibacterial activity against Escherichia coli KCTC 1682 after 24 hrs; type: functional; conditions: KCTC 1682, 24 h
Staphylococcus aureus [38] = assay: Ratio of MIC for Staphylococcus aureus KCTC 1621 in presence of 20% human serum to MIC for Escherichia coli KCTC 1682 in presence of 20% human serum; type: functional
Escherichia coli [39] = assay: Antibacterial activity against Escherichia coli KCTC 1682 in presence of 2.5 mM CaCl2 after 24 hrs; type: functional; conditions: KCTC 1682, 24 h
[40] = Therapeutic index, ratio of MHC10 for human RBC to MIC for Escherichia coli KCTC 1682; type: toxicity; conditions: red blood cells (RBC), pooled result: one value given for 6 cell lines, strains, targets or settings, read-out: TI

CC[C@H](C)[C@H](NC(=O)[C@H](CCCNC(=N)N)NC(=O)[C@@H](N)CCCCN)C(=O)N[C@H](C(=O)N[C@@H](CCCCN)C(=O)N[C@H](CC(C)C)C(=O)N[C@H](C(=O)N[C@@H](CC(C)C)C(=O)N[C@@H](CCCCN)C(=O)N[C@@H](Cc1c[nH]c2ccccc12)C(=O)N[C@@H](CC(C)C)C(=O)N[C@@H](CCCNC(=N)N)C(N)=O)[C@@H](C)CC)C(C)C
MIC (Pseudomonas aeruginosa [1]): 8 µM (≈ 12.5 µg/mL) | Activity (RAW264.7 [2]): Active | MIC (Staphylococcus aureus [3]): 4 µM (≈ 6.26 µg/mL) | MIC [4]: 4 µM (≈ 6.26 µg/mL) | MIC (Escherichia coli [5]): 4 µM | MIC (Staphylococcus aureus [6]): 2 µM (≈ 3.13 µg/mL) | MIC (Staphylococcus aureus [7]): 2 µM | MIC (Pseudomonas aeruginosa [8]): 4 µM (≈ 6.26 µg/mL) | MIC (Escherichia coli [9]): 8 µM | MIC (Salmonella typhimurium): 2 µM (≈ 3.13 µg/mL) | MIC (Staphylococcus aureus [10]): 8 µM | Ratio (Enterococcus faecium [11]): 2 - 4 | MIC (Pseudomonas aeruginosa [12]): 4 µM (≈ 6.26 µg/mL) | MIC (Escherichia coli [13]): 4 µM | MIC (Staphylococcus aureus [14]): 4 µM (≈ 6.26 µg/mL) | MIC (Staphylococcus aureus [15]): 4 µM | Ratio (Staphylococcus aureus [16]): 2 - 4 | MHC10 (Erythrocyte): 202 µM | Ratio (Staphylococcus aureus [17]): 2 - 4 | MIC (Bacillus subtilis): 4 µM (≈ 6.26 µg/mL) | Ratio (Enterococcus faecium [18]): 2 - 4 | MIC (Escherichia coli [19]): 4 µM | Ratio (Staphylococcus aureus [20]): 2 - 4 | KSV [21]: 2.9 M⁻¹ | Activity (RAW264.7 [22]): Active | MBIC90 (Pseudomonas aeruginosa [23]): 16 µM | Activity (RAW264.7 [24]): Active | fractional inhibitory concentration index (FICI) (Pseudomonas aeruginosa [25]): 0.3125 | MIC (Escherichia coli [26]): 4 µM | Activity (RAW264.7 [27]): Active | MIC (Staphylococcus aureus [28]): 2 µM | Ratio (Pseudomonas aeruginosa [29]): 2 - 4 | KSV (Lipid bilayer): 0.97 M⁻¹ | Activity (Staphylococcus aureus [30]): Active | Ratio (Pseudomonas aeruginosa [31]): 2 - 4 | fractional inhibitory concentration index (FICI) (Pseudomonas aeruginosa [32]): 0.375 | MIC (Enterococcus faecium [33]): 4 µM (≈ 6.26 µg/mL) | Ratio (Pseudomonas aeruginosa [34]): 2 - 4 | Activity (RAW264.7 [35]): Active | Activity (RAW264.7 [36]): Active | MIC (Escherichia coli [37]): 4 µM (≈ 6.26 µg/mL) | Ratio (Staphylococcus aureus [38]): 2 - 8 | MIC (Escherichia coli [39]): 16 µM | selectivity ratio [40]: 61.2

CC[C@H](C)[C@H](NC(=O)[C@H](CC(C)C)NC(=O)[C@@H](CCCCN)NC(=O)[C@@H](NC(=O)[C@@H](NC(=O)[C@H](CCCNC(=N)N)NC(=O)[C@@H](N)CCCCN)[C@@H](C)CC)C(C)C)C(=O)N[C@@H](CC(C)C)C(=O)N[C@@H](CCCCN)C(=O)N[C@@H](Cc1c[nH]c2ccccc12)C(=O)N[C@@H](CC(C)C)C(=O)N[C@@H](CCCNC(=N)N)C(N)=O
MIC (Pseudomonas aeruginosa [1]): 8 µM (≈ 12.5 µg/mL) | Activity (RAW264.7 [2]): Active | MIC (Staphylococcus aureus [3]): 4 µM (≈ 6.26 µg/mL) | MIC [4]: 4 µM (≈ 6.26 µg/mL) | MIC (Escherichia coli [5]): 4 µM | MIC (Staphylococcus aureus [6]): 2 µM (≈ 3.13 µg/mL) | MIC (Staphylococcus aureus [7]): 2 µM | MIC (Pseudomonas aeruginosa [8]): 8 µM (≈ 12.5 µg/mL) | MIC (Escherichia coli [9]): 4 µM | MIC (Salmonella typhimurium): 2 µM (≈ 3.13 µg/mL) | MIC (Staphylococcus aureus [10]): 2 µM | Ratio (Enterococcus faecium [11]): 2 - 4 | MIC (Pseudomonas aeruginosa [12]): 4 µM (≈ 6.26 µg/mL) | MIC (Escherichia coli [13]): 4 µM | MIC (Staphylococcus aureus [14]): 4 µM (≈ 6.26 µg/mL) | MIC (Staphylococcus aureus [15]): 8 µM | Ratio (Staphylococcus aureus [16]): 2 - 4 | MHC10 (Erythrocyte): 79 µM | Ratio (Staphylococcus aureus [17]): 2 - 4 | MIC (Bacillus subtilis): 8 µM (≈ 12.5 µg/mL) | Ratio (Enterococcus faecium [18]): 2 - 4 | MIC (Escherichia coli [19]): 4 µM | Ratio (Staphylococcus aureus [20]): 2 - 4 | KSV [21]: 2.21 M⁻¹ | Activity (RAW264.7 [22]): Active | MBIC90 (Pseudomonas aeruginosa [23]): 8 µM | Activity (RAW264.7 [24]): Active | fractional inhibitory concentration index (FICI) (Pseudomonas aeruginosa [25]): 0.5 | MIC (Escherichia coli [26]): 8 µM | Activity (RAW264.7 [27]): Active | MIC (Staphylococcus aureus [28]): 2 µM | Ratio (Pseudomonas aeruginosa [29]): 2 - 4 | KSV (Lipid bilayer): 1.02 M⁻¹ | Activity (Staphylococcus aureus [30]): Active | Ratio (Pseudomonas aeruginosa [31]): 2 - 4 | fractional inhibitory concentration index (FICI) (Pseudomonas aeruginosa [32]): 0.375 | MIC (Enterococcus faecium [33]): 4 µM (≈ 6.26 µg/mL) | Ratio (Pseudomonas aeruginosa [34]): 2 - 4 | Activity (RAW264.7 [35]): Active | Activity (RAW264.7 [36]): Active | MIC (Escherichia coli [37]): 4 µM (≈ 6.26 µg/mL) | Ratio (Staphylococcus aureus [38]): 2 - 8 | MIC (Escherichia coli [39]): 8 µM | selectivity ratio [40]: 16.8

Source: ChEMBL document CHEMBL4138105, “LL-37-derived short antimicrobial peptide KR-12-a5 and its d-amino acid substituted analogs with cell selectivity, anti-biofilm activity, synergistic effect with conventional antibiotics, and anti-inflammatory activity” (Eur J Med Chem, 2017)
